# Laboratory results published in article PMC8470279, “Biosynthesis of the Novel Endogenous 15-Lipoxygenase Metabolites N-13-Hydroxy-octodecadienoyl-ethanolamine and 13-Hydroxy-octodecadienoyl-glycerol by Human Neutrophils and Eosinophils” (Cells, 2021).
# Where two headings read alike, the source gives them in different places.
# Experiments:
# [1] = target: human recombinant CB1 receptor (Homo sapiens, UniProt P21554); assay: CB1 receptor binding assay; settings: mean ± SD; for CB1 Receptor Max Tested (% Displacement): 10 µM
# Procedure: (§1) The analysis of CB1 and CB2 receptor binding was performed exactly as described in [21].
# [2] = target: human recombinant CB2 receptor (Homo sapiens, UniProt P34972); assay: CB2 receptor binding assay; settings: mean ± SD; for CB2 Receptor Max Tested (% Displacement): 10 µM
# Procedure: as §1
# [3] = target: T1, human recombinant TRPV1 (Homo sapiens, UniProt Q8NER1); assay: TRPV1-mediated intracellular calcium elevation; format: cell-based; settings: mean ± SD; for IC50: assayed using 100 nM capsaicin, read-out: Desensibilization (IC50); for Emax: read-out: Efficacy (% Max Response)
# T1 construct: expressed in transfected cells
# From the text: (§2) These assays we preformed exactly as described in [21].
# [4] = target: T2, PPAR-α (Homo sapiens, UniProt Q07869); assay: PPAR-α functional (transcriptional) activity assay kit; format: cell-based; settings: 30 µM, overnight
# T2 construct: purchased
# T2 sequence (Q07869 1-468): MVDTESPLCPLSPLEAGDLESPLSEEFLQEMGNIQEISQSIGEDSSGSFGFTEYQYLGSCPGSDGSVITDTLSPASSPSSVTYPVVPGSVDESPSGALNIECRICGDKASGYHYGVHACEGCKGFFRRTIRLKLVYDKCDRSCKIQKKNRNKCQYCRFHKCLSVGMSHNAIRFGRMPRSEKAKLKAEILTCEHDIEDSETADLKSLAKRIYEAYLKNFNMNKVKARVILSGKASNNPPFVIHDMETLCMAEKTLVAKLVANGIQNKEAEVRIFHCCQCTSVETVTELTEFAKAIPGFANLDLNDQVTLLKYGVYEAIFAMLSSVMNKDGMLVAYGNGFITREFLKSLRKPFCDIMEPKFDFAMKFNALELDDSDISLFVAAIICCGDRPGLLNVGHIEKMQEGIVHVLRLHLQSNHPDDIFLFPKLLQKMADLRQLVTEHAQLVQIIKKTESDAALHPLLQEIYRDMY
# Procedure: as §2
# (§3) Figure 10 Impact of 13-HODE and 13-HODE-G on PPAR activity. Cells were incubated with 30 µM 13-HODE, 13-HODE-G, or OEA overnight and PPAR activity was measured using the PPAR assay kits according to the manufacturers’ instructions. Rosiglitazone (10 µM) and GW 590735 (100 nM) were utilized as positive controls for the (A) PPAR-γ and (B) PPAR-α assays, respectively. Data represent the mean (± SEM) of three (PPAR-γ) or five (PPAR-α) experiments, each performed in triplicates. p values were obtained by performing a 2-way ANOVA with a Sidak multiple comparison tests. **** p < 0.0001, *** p < 0.001. ns: p > 0.05.
# [5] = target: T3, PPAR-γ (Homo sapiens, UniProt P37231); assay: PPAR-γ functional (transcriptional) activity assay kit; format: cell-based; settings: 30 µM, overnight
# T3 construct: purchased
# T3 sequence (P37231 1-505): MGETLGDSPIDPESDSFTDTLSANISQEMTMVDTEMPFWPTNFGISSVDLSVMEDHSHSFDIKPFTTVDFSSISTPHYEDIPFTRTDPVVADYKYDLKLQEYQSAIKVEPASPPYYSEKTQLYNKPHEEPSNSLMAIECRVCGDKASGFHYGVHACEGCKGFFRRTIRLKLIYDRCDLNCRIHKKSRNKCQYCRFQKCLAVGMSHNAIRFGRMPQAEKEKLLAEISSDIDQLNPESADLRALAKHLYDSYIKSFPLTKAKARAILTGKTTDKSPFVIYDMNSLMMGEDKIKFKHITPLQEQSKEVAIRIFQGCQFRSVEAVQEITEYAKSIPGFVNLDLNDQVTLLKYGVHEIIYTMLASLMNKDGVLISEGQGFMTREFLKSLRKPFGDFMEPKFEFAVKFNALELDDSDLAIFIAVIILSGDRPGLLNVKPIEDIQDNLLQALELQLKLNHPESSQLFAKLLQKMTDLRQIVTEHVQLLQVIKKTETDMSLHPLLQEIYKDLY
# Procedure: as §2, §3
# [6] = Detection of 13-HODE-G in human samples by LC-MS/MS; settings: mean ± SEM, n = 5
# [7] = tested on: human eosinophils; assay: Biosynthesis of 15-LO metabolites by human eosinophils; settings: for Times more metabolite in eosinophils than in neutrophils: same donors, combination of LA, 1-LG and LEA at 3 µM each, 5 min; for Time of maximal levels of 15-lipoxygenase metabolite / Delay before metabolism into 15-lipoxygenase counterpart: 3 µM substrate; for Time of maximal levels of 15-lipoxygenase metabolite: longest time point studied
# [8] = tested on: human neutrophils; assay: Inhibition of 13-HODE-G and 13-HODE-EA biosynthesis by 15-LO inhibitors in neutrophils; format: cell-based; settings: inhibitor 10 µM 5 min, then 3 µM LEA or 1-LG 5 min
# From the text: Figure 9 Inhibition of 13-HODE-G and 13-HODE-EA biosynthesis by 15-LO inhibitors in human eosinophils and neutrophils. […] Samples then were processed for LC-MS/MS analyses as described in methods. Results are the mean (±SEM) of 4 independent experiments.
# [9] = tested on: human neutrophils; assay: Hydrolysis/stability of added 13-HODE-EA in neutrophil suspensions; format: in vitro ADME; settings: neutrophils 5 × 10^6 cells/mL
# [10] = tested on: human eosinophils; assay: Hydrolysis/stability of added 13-HODE-EA in eosinophil suspensions; format: in vitro ADME; settings: eosinophils 10^6 cells/mL
# [11] = target: T4, human recombinant 15-LO-1 (Homo sapiens, UniProt P16050); set-up: method as in PMID 33915294; settings: previous publication; cited from earlier work
# T4 sequence (P16050 1-662): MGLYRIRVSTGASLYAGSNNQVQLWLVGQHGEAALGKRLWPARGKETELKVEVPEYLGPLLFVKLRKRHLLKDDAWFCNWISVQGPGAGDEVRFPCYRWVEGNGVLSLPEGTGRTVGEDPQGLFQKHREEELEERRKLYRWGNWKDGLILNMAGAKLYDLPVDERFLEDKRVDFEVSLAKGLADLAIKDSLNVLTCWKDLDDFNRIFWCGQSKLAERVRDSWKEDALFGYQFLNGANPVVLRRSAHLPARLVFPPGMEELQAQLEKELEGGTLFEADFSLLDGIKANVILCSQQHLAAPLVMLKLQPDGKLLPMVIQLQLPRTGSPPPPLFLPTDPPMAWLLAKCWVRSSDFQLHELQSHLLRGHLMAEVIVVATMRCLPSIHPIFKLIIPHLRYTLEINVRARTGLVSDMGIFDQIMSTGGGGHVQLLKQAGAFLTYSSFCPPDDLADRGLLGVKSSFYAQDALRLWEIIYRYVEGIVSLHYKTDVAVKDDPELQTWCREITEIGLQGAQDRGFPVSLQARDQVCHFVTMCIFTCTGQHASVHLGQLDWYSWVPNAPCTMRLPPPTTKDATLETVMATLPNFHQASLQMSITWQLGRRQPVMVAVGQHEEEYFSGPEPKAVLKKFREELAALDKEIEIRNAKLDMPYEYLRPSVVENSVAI
# [12] = target: T5, human recombinant 15-LO-2 (Homo sapiens, UniProt O15296); set-up: method as in PMID 33915294; settings: previous publication; cited from earlier work
# T5 sequence (O15296 1-676): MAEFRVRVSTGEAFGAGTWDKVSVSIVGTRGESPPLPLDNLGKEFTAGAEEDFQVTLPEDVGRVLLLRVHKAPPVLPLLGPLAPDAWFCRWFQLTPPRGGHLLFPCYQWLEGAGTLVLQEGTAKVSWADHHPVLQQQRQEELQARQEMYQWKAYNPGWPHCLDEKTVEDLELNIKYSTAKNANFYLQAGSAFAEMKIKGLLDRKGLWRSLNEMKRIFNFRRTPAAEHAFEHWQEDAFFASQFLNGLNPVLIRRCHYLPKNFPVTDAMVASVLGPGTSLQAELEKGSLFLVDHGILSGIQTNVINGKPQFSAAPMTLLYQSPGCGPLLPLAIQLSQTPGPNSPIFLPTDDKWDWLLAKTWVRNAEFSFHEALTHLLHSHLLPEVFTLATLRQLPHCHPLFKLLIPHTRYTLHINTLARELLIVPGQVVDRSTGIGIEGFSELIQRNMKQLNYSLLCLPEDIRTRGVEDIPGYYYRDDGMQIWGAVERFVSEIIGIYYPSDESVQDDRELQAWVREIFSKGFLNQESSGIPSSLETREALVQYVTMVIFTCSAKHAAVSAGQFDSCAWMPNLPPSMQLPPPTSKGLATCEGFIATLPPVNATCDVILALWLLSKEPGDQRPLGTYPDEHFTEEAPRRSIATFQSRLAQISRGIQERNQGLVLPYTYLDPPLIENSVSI
# [13] = tested on: human neutrophils; assay: Biosynthesis of 15-LO metabolites by human neutrophils
# [14] = target: T4, human recombinant 15-LO-1; assay: Metabolism of substrates by recombinant 15-LO-1, LC-MS/MS; format: biochemical; settings: 10 µM 1-LG, 5 min, 37 °C
# Procedure: (§4) Recombinant human 15-LO-1 and 15-LO-2 enzymes were added to HEPES 25 mM + 0.01% Triton (14 μg/mL for 15-LO-1, 56 μg/mL for 15-LO-2). A total of 10 μM of the fatty acids were added to the buffer for 5 min (15-LO-1) or 15 min (15-LO-2), at 37 °C. The final volume of the reaction mix was 100 µL. After the incubation, 50 µL of NaBH4 1M was added to the reaction, for 5 min at 37 °C. The reactions were stopped by adding 0.5 mL of cold (−20 °C) methanol +0.01% acetic acid and kept at −30 °C until further processing.
# (§5) Figure 3 Metabolism of 1-LG, LA and LEA by human recombinant 15-LO-1 and 15-LO-2. Human recombinant 15-LO-1 (A–D) or 15-LO-2 (E–H) were incubated at 37 °C in HEPES 25 mM containing 0.01% triton. A total of 10 μM of LA (A,D,E,H); 1-LG (B,D,F,H) or LEA (D,H) were added for 5 min (15-LO-1) or 15 min (15-LO-2). NaBH4 was then added for 5 min and incubations were stopped by the addition of 0.5 mL of cold (−20 °C) MeOH containing 0.01% acetic acid and the internal standards. Samples then were processed for LC-MS/MS analyses as described in methods. Results are the mean (±SEM) of 3 independent experiments.
# [15] = target: T5, human recombinant 15-LO-2; assay: Metabolism of substrates by recombinant 15-LO-2, LC-MS/MS; format: biochemical; settings: 10 µM 1-LG, 15 min, 37 °C
# Procedure: as §4, §5
# [16] = intracellular calcium elevation
# human recombinant CB2 receptor, sequence (P34972 whole entry): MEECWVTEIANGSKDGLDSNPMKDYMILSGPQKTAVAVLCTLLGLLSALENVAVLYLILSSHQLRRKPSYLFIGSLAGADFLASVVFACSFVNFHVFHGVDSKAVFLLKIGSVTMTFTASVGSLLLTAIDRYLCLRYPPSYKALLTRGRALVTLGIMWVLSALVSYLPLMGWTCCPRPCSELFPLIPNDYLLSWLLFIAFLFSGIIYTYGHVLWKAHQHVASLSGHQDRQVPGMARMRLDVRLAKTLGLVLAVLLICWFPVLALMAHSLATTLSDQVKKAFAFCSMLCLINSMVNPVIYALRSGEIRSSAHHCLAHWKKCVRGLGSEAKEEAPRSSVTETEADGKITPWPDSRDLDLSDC
# human recombinant CB1 receptor, sequence (P21554 whole entry): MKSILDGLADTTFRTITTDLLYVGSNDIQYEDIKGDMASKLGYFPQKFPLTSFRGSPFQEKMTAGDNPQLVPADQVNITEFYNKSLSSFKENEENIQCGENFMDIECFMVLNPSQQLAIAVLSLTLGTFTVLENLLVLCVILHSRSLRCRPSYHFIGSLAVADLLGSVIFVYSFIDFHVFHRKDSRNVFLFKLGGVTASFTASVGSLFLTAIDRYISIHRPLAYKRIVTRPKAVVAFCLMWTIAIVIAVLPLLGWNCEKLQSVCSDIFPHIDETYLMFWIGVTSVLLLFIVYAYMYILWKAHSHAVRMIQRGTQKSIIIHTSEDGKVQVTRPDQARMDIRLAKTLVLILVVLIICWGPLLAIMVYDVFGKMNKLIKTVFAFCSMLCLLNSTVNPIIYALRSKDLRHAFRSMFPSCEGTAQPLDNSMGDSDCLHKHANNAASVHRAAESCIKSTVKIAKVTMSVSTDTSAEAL
# T1 sequence (Q8NER1 whole entry): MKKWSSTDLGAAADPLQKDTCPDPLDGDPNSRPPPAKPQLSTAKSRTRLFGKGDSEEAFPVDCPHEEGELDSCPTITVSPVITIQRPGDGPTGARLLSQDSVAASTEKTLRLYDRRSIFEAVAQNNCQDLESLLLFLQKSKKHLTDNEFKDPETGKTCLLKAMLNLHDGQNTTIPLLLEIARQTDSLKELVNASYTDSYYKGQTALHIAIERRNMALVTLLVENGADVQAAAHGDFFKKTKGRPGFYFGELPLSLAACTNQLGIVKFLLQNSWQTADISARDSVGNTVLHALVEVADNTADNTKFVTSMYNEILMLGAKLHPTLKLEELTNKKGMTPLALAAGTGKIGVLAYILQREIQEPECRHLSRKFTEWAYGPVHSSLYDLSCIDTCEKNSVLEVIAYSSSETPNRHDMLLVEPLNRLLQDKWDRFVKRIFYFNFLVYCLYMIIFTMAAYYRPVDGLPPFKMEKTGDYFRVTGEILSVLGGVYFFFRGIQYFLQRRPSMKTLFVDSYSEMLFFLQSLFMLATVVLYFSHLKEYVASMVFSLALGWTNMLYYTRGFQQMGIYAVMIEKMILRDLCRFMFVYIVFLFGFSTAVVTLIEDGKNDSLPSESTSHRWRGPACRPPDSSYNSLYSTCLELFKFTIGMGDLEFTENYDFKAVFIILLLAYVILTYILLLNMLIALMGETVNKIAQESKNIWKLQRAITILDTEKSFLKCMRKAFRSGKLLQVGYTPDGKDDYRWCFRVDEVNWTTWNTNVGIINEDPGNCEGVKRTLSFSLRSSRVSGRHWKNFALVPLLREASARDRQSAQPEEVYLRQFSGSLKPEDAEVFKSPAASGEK
Compound,CB1 Receptor Max Tested (% Displacement) [1],IC50 [1] [µM],Ki [1] [µM],CB2 Receptor Max Tested (% Displacement) [2],IC50 [2] [µM],Ki [2] [µM],IC50 [3] [µM],"Emax [3, 16] [%]",Time of maximal levels of 15-lipoxygenase metabolite [7] [min],Times more metabolite in eosinophils than in neutrophils [7],further results
CC(Cc1ccc(O)c(O)c1)C(C)Cc1ccc(O)c(O)c1 (stereo not shown) [NDGA],,,,,,,,,,,Inhibition of biosynthesis of the investigated 15-LO metabolites [8]: did not inhibit
"CCCCC[C@H](O)/C=C/C=C\CCCCCCCC(=O)NCCO [13-HODE-EA, N-13-hydroxy-octodecadienoyl-ethanolamine]",,,,,,,,,,~ 500 times,Remaining after 15 min [9]: 60%; Remaining after 15 min [10]: 90%; 13-HODE-EA/13-HODE ratio [11]: ~ 3.5; 13-HODE-EA/13-HODE ratio [12]: ~ 3
"CCCCC/C=C\C/C=C\CCCCCCCC(=O)O [LA, Linoleic acid]",,,,,,,,,15,,Time of peak 13-HODE biosynthesis ([13]; 3 µM LA): 10 s; Time to biosynthesis of 13-HODE derivatives ([13]; 3 µM substrate): 10 to 30 s
"CCCCC/C=C\C/C=C\CCCCCCCC(=O)NCCO [LEA, N-linoleoyl-ethanolamine]",,,,,,,,,15,,Delay before metabolism into 15-lipoxygenase counterpart [7]: ~ 1 min; Ratio 13-HODE/13-HODE-EA [13]: 2.67 ± 0.590; Time to biosynthesis of 13-HODE derivatives [13]: 10 to 30 s
"CCCCC/C=C\C/C=C\CCCCCCCC(=O)OCC(O)CO (stereo not shown) [1-LG, 1-linoleoyl-glycerol]",10µM (95.8 ± 16.4) %,2.81 ± 0.85,0.31 ± 0.15,10 µM (28.45 ± 9.4) %,> 10,> 10,2.7 ± 0.3,46.5 ± 0.9,15,,"EC50 ([3]; intracellular calcium elevation, read-out: Potency (EC50)): 0.23 ± 0.02 µM; Efficacy of the reaction (1-LG to 13-HODE-G) [14]: 23%; Efficacy of the reaction (1-LG to 13-HODE-G) [15]: 40%; Delay before metabolism into 15-lipoxygenase counterpart [7]: ~ 1 min; Time to biosynthesis of 13-HODE derivatives ([13]; 3 µM substrate): 10 to 30 s"

# Second part, led by results:
CB1 Receptor Max Tested (% Displacement) [1],IC50 [1] [µM],Ki [1] [µM],CB2 Receptor Max Tested (% Displacement) [2],IC50 [2] [µM],Ki [2] [µM],IC50 [3] [µM],"Emax [3, 16] [%]",Time of maximal levels of 15-lipoxygenase metabolite [7] [min],Compound,Times more metabolite in eosinophils than in neutrophils [7],further results
10 µM (18.90 ± 6.1) %,> 10,> 10,10 µM (33.58 ± 21.3) %,> 10,> 10,> 50,< 10,,"CCCCC[C@H](O)/C=C/C=C\CCCCCCCC(=O)OCC(O)CO (stereo partly shown) [13-HODE-G, 13-hydroxy-octodecadienoyl-glycerol]",~ 60 times,Stimulation of PPAR-α transcriptional activity [4]: did not stimulate; Stimulation of PPAR-γ transcriptional activity [5]: did not stimulate; Level in human epidermis samples [6]: 21.9 ± 6.2 fmol/mg tissue
10 µM (7.56 ± 2.3) %,> 10,> 10,10 µM (38.34 ± 5.4) %,> 10,> 10,> 50,< 10,,"CCCCC[C@H](O)/C=C/C=C\CCCCCCCC(=O)O [13-HODE, 13(S)-hydroxy-octodecadienoic acid]",~ 30 times,Stimulation of PPAR-α transcriptional activity [4]: robust effect
